Measured values taken from patent CN104630230A, “一组特异识别大田软海绵酸的核酸适配体” (priority 2015, dated 2015).
Like-named read-outs stand apart in the source and are kept apart here.

Experiments:
Test in all cases: Affinity analysis (GO separation, FAM fluorescence, saturation binding)
[1] = target: 5'-FAM-labelled ssDNA OA-08 (80 nt); details: 1 μM OA, 5-200 nM ssDNA, 2 h in the dark, ex 490 nm / em 520 nm
[2] = target: 5'-FAM-labelled single-stranded DNA aptamer OA27-1 (truncated OA-27, random region 40 nt) (核酸适配体 OA27-1); details: OA27-1, saturation binding curve (Fig. 4B)
[3] = target: 5'-FAM-labelled ssDNA OA-22 (80 nt); details: 1 μM OA, 5-200 nM ssDNA, 2 h in the dark, ex 490 nm / em 520 nm
[4] = target: 5'-FAM-labelled single-stranded DNA aptamer OA-27 (80 nt) (核酸适配体 OA-27)
[5] = target: 5'-FAM-labelled ssDNA OA-17 (80 nt); details: 1 μM OA, 5-200 nM ssDNA, 2 h in the dark, ex 490 nm / em 520 nm

C=C1[C@@H](O)[C@@H]2O[C@]3(CC[C@H](/C=C/[C@@H](C)[C@@H]4CC(C)=C[C@@]5(O[C@H](C[C@@](C)(O)C(=O)O)CC[C@H]5O)O4)O3)CC[C@H]2O[C@@H]1[C@@H](O)C[C@H](C)[C@H]1O[C@@]2(CCCCO2)CC[C@H]1C [OA, Okadaic acid]
Kd [1]: < 0.1 µM | Kd [2]: 0.039 µM | Kd [3]: < 0.1 µM | Kd ([4]; 1 μM OA, 5-200 nM ssDNA, 2 h in the dark, GO separation, ex 490 nm / em 520 nm, read-out: Kd): < 0.1 µM | Kd ([4]; in words, OA-27 compared with the other ssDNA sequences of the 8 tested (Fig. 4A)): 其Kd值最小 | Kd [5]: < 0.1 µM
